The text below walks through data of PubChem BioAssay (NCI).

Common to all, as to experiment: growth of human tumour cells (NCI), 48 h
In assay [1] the test system is ACHN renal.
The test system of assay [2] is CCRF-CEM leukemia.
In assay [3] the test system is HCC-2998 colon.
Assay [4] concerns HCT-15 colon.
Assay [5] concerns IGROV1 ovarian.
The test system of assay [6] is NCI-H23 lung.
The test system of assay [7] is OVCAR-3 ovarian.
In assay [8] the test system is SF-295 CNS.
The subject of assay [9] is SK-MEL-2 melanoma.
The test system of assay [10] is SN12C renal.
Assay [11] relates to SR leukemia.
Assay [12] concerns U251 CNS.
The test system of assay [13] is UACC-257 melanoma.
The test system of assay [14] is UACC-62 melanoma.
Assay [15] deals with UO-31 renal.

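Five concentrations, 48 hours, 96-well plates. TGI marks complete inhibition of growth.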

`O=c1[nH]c(=O)n(C2CC(O)C(COP(=O)(OCC(Cl)(Cl)Cl)OCC(Cl)(Cl)Cl)O2)cc1F` (stereo not given): the TGI in [1] was > 100 µM; in assay [2] it was > 100 µM; in [3], 1.62 µM; in assay [4], > 100 µM; in assay [5] it was > 100 µM; in assay [6] it was > 100 µM. Also, the TGI in [7], in [8], in assay [9], in [10], in assay [11] and in assay [12] was > 100 µM throughout. In addition, the TGI in assay [13], in assay [14] and in [15] was > 100 µM in each case.
`C=CCN1C(=O)CS/C1=N\NC(=O)CSc1nc2ccccc2c(=O)n1CC`: the TGI in [1], in [2], in [3], in assay [4], in assay [5] and in [6] was > 100 µM each time. Further, the TGI in [7], in assay [8], in [9], in assay [10], in assay [11] and in [12] was > 100 µM in each case. The TGI in assay [13], in [14] and in assay [15] was > 100 µM in each case.
For `CC1OC(CC2C=CCc3c(O)c4c(c(O)c32)C(=O)c2ccccc2C4=O)CC(NC(=O)C(F)(F)F)C1O` (stereo not given), the TGI in [1] is 25.1 µM; in [2], 20.7 µM; in [3], > 100 µM; in [4], 55.9 µM; in [5], 44.6 µM; in [6], 20.7 µM. Moreover, the TGI in [7] is 19.2 µM; in [8], 18 µM; in assay [9], 30.2 µM; in [10], 18.2 µM; in assay [11], 13.5 µM; in [12] it was 15.4 µM. In addition, the TGI in [13] was determined as 26.8 µM; in [14], 17.4 µM; in [15] it was 42.7 µM.
In the case of `CCOC(=O)CCc1ccc(NC(=O)/C=C/c2ccc([N+](=O)[O-])o2)cc1`, the TGI in [1] is 2.73 µM; in assay [2], 0.957 µM; in assay [3], 7.61 µM; in [4], 4.05 µM; in [5], > 31.1 µM; in [6], 3.33 µM. Also, the TGI turned out to be 2.88 µM in assay [7]; 28.7 µM in assay [8]; 4.82 µM in assay [9]; 4.26 µM in assay [10]; 0.475 µM in assay [11]; 6.42 µM in [12]. The results for the TGI in assay [13], in [14] and in assay [15] were 2.71 µM, > 20.5 µM and 3.08 µM, respectively.
As for `C/C(=N/N)c1sc(-c2nc(C)c(/C(C)=N\N)s2)nc1C`, the TGI was > 100 µM in assay [1]; > 76.7 µM in assay [2]; > 100 µM in [3]; > 60.8 µM in assay [4]; > 100 µM in assay [5]; > 100 µM in assay [6]. Moreover, the TGI in assay [7] is > 100 µM; in assay [8], > 100 µM; in assay [9], > 100 µM; in assay [10], > 100 µM; in [11], 36.4 µM; in [12], > 100 µM. The TGI in assay [13], in [14] and in assay [15] was > 100 µM each time.
Consider `CCc1cccc(NC(=O)c2cc(/C=C/c3ccccc3)[nH]c(=S)n2)c1`, for which the TGI in [1], in assay [2], in [3], in assay [4], in [5] and in assay [6] was > 100 µM throughout. Also, the TGI in assay [7], in assay [8], in assay [9], in assay [10], in [11] and in [12] was > 100 µM in each case. Moreover, the TGI in [13], in assay [14] and in assay [15] was > 100 µM in each case.
With `Cc1ccc(NC(=O)CCC(=O)C2Cc3ccccc3C2=O)cc1C` (stereo not given), the TGI in [1], in [2], in assay [3], in assay [4], in assay [5] and in [6] was > 100 µM throughout. For the same molecule, the TGI in assay [7], in assay [8], in assay [9], in [10], in assay [11] and in [12] was > 100 µM in each case. Besides, the TGI in [13], in assay [14] and in assay [15] was > 100 µM each time.
For the molecule `Cc1ccc(S(=O)(=O)NNC(=O)Nc2ccc([N+](=O)[O-])cc2)cc1`, the TGI in assay [1], in [2], in assay [3], in assay [4], in assay [5] and in [6] was > 100 µM in each case. The TGI in assay [7] was 78.2 µM; in [8], > 100 µM; in [9], > 100 µM; in [10], > 100 µM; in assay [11], > 100 µM; in assay [12], > 100 µM. Also, the figures for the TGI in assay [13], in [14] and in assay [15] were > 100 µM, 98 µM and > 100 µM, respectively.
`CC(=O)OC(C)c1cc2c(s1)C(=O)c1ccsc1C2=O` (stereo not given): the TGI came out at 0.31 µM in [1]; 0.653 µM in [2]; 1.54 µM in assay [3]; 0.272 µM in assay [4]; 1.55 µM in assay [5]; 0.196 µM in assay [6]. Further, the TGI in assay [7] came out at 0.192 µM; in assay [8], 0.233 µM; in assay [9], 0.927 µM; in assay [10] it was 0.355 µM; in assay [11], 0.365 µM; in assay [12], 1.11 µM. Besides, the TGI in assay [13] stood at 0.156 µM; in [14], 0.23 µM; in assay [15], 0.354 µM.
For `O=C(O)CCSC(=O)Nc1ccccc1`, the TGI in assay [1], in assay [2], in assay [3], in assay [4], in assay [5] and in [6] was > 100 µM in each case. For the same molecule, the TGI in [7], in assay [8], in assay [9], in assay [10], in assay [11] and in assay [12] was > 100 µM throughout. The TGI in [13], in [14] and in assay [15] was > 100 µM each time.
